Laboratory results as given in patent US20250032425A1, “FIRST IN CLASS USE OF ESTROGEN RECEPTOR BETA AGONISTS IN TREATING ANGELMAN SYNDROME AND RELEVANT AUTISM SPECTRUM DISORDERS” (BROWN UNIVERSITY, priority 2023, published 2025).
Entries after “also recorded” stand apart in the source; their conditions may differ.

Tests used:
[1] = system: ERK/MAPK signaling pathway; test: ERK/MAPK and S6 activation in iOPCs by immunoblotting (phosphorylated to total ratio); format: cell-based, human
Text: FIGS. 20A-20E depict the identification of ESR-β signaling pathway in regulating OPC proliferation impaired by UBE3A depletion. FIG. 20A: Immunofluorescence to track estrogen receptor (ESR) expression in OPCs, by staining of all 3 ESRs, ESR-α, ESR-β and GPER (top panels), in iOPCs co-labeled with UBE3A (middle panels) and DAPI; scale bar, 100 μm. […] FIG. 20B: Immunoblotting to assess OPC expression of individual ESRs, by analyzing protein levels of ESR-α, ESR-β and GPER in iOPCs treated with siNC or siUBE3A, normalized to GAPDH and expressed relative to the siNC condition (set as 1.0). After treatment with siUBE3A, expression of ESR-β was decreased, while expression of GPER was increased. n=5-6 experiments. FIG. 20C: The activation of the ERK/MAPK signaling pathway in OPCs, particularly downstream of ESR-β, was analyzed in iOPCs subjected to 6 knockdown conditions: siNC, siUBE3A, siESRα, siESRβ, and combinations of siUBE3A with siESRα or siESRβ. These were followed by treatment with vehicle control or the ESR-β agonist AC-186 (10 μM, 30 min). The activation of ERK and its substrate S6 was determined by the ratio of phosphorylated to total ERK and S6 levels, adjusted relative to the vehicle control group (standard value of 1.0). ERK phosphorylation and S6 phosphorylation was decreased in cells treated with siESRβ, or siESRβ and siUBE3A combined. n=3 experiments. FIG. 20D: Immunoblotting to evaluate the role of ERK/MAPK activation in the restoration of OPC proliferation following ESR-β activation, with the addition of ERK phosphorylation inhibitors U0126 or PD98059 to UBE3A-depleted OPCs, with or without AC-186 co-treatment (10 μM. 24 hours). The quantification of Ki67 expression and UBE3A levels, being normalized to β-tubulin (TUBB1) and compared to the siNC condition (value of 1.0). n=5 experiments. FIG. 20E: A schematic depicting the regulatory role of ESR-β signaling pathway in OPC proliferation, identified by combining genetic knockdown techniques and pharmacological interventions. Activation of ESR-β selectively triggers the ERK/MAPK pathway, as shown by ERK phosphorylation and the ERK substrate S6 activation, essential for cell proliferation. […] As applicable: statistical significance was determined using One-way ANOVA followed by post-hoc comparisons, with selected comparisons presented. Significance levels marked as *p<0.05. ** p<0.005. *** p<0.001. **** p<0.0001, ns not significant, across relevant comparisons.
The siRNAs targeting UBE3A (Thermo Fisher, #4390815 and #4390816), estrogen receptors (Thermo Scientific #145909 for ESRβ, #145539 for ESRα, and #4390824 for GPER), and negative control (Thermo Scientific, #AM4615) were obtained commercially. The 10-20 nM final concentration was used with Lipofectamine RNAiMAX transfection reagent (Thermo Scientific #13778075) and incubated for at least 48 hours before the treatments of therapeutic compounds or other reagents.
Cells were collected by fast spin down in centrifuge tubes before lysis in RIPA buffer (ThermoFisher, #89901) supplemented with proteinase inhibitor cocktail (Sigma-Aldrich, #5892791001) on ice. Lysates were then spun down at 15000 rpm for 10 mins, the supernatant was collected and mixed with 4× Laemmle sample buffer (Bio-Rad, #1610747) and cooked 10 mins before SDS-PAGE and transferred with Bio-Rad fast transfer system, the membranes were blocked for one hour in 1× Tris Buffered Saline (TBS) with 1% Casein buffer (Bio-Rad, #1610782) and incubated with primary antibodies overnight at 4 degrees. After 3 times washing in TBST washing buffers (ThermoFisher, #28352), the membranes were incubated with HRP conjugated antibodies and developed with Clarity Max™ Western ECL Substrate (Bio-Rad, #1705062) before being filmed in the iBright imaging system.

[2] = system: Angelman syndrome (AS) mice; test: Hindlimb Clasping test in AS mice; format: in vivo, mouse
Description: Animal handling and experimental use strictly followed NIH guidelines and protocols approved by the local Institutional Animal Care and Use Committee (IACUC) of Brown University. In all experiments, Mice were age and gender-matched. Multiple liters were used for all experiments. Weaned mice, housed in groups of two to four per cage, were maintained on a 12-h light/dark cycle with food and water ad libitum.
ESRβ agonist AC-186 treatment in vivo. 10 mg/kg AC-186 was daily IP delivered after dissolved at high concentration (30 mg/ml) in DMSO and further diluted in 20% PEG300. Vehicle groups received the same volume and concentration of diluted DMSO in 20% PEG300. Treatment started at P13 and continued until mice were sacrificed at P42.
The Hindlimb Clasping test, which was administered as delineated in a prior study, Guyenet et al., 2010 (A simple composite phenotype scoring system for evaluating 10 mouse models of cerebellar ataxia. J Vis Exp.), is a neurological evaluation that involves the temporary suspension of mice to observe their hindlimb reflexes, a reliable indicator of central nervous system pathology. This method involves a 10-second observation period during which the mice's hindlimb positions are closely monitored and scored. […]

[3] = UBE3A-depleted iOPCs, AC-186 10 μM, 30 min

Question: With `Oc1ccc(C2(c3ccccc3F)CCC(F)(F)CC2)cc1` [AC-186] as the molecule, how does the UBE3A levels [1, 3] read?
Answer: remained unchanged

Question: What about the “activity of ERK” value [1, 3] of the same molecule?
Answer: restored

Question: What about the “activity of S6” value [1, 3] of the same molecule?
Answer: restored

Question: And the “effects on ERK/MAPK activation when ESR-α was knocked down” value ([1]; siESRα)?
Answer: did not reverse the effects of AC-186

Question: What about the “effects on ERK/MAPK activation when ESR-β was knocked down” value ([1]; siESRβ) of the same molecule?
Answer: negated

Question: And the Hindlimb clasping score ([2]; AS mice, 10 mg/kg daily IP from P13-14, vs AS vehicle, 10 mg/kg)?
Answer: significantly alleviated neurological symptoms; also recorded: decreased

Question: What about the Hindlimb clasping score ([2]; wildtype mice, 10 mg/kg daily IP) of the same molecule?
Answer: without affecting wildtype mice
